The term IC50 denotes the midpoint of a concentration-inhibition curve.

What all share (assay type): cell-based, Human papilloma virus
The subject of one test is HPV31. The test is described as follows: HPV31 DNA levels in keratinocytes by real-time PCR. Particulars: effective (pseudo) IC50. The protocol:
(§1) Human keratinocytes, including those maintaining HPV episomes, are cultured on mitomycin C-treated J2 3T3 cells in media containing three parts Dulbecco's modified Eagle medium (DMEM) and one part F12 media, our modification of published methods (Rheinwald and Green, 1975). Media (E Media) is supplemented with 0.4 μg/mL hydrocortisone, 10 ng/mL cholera toxin, 5 μg/mL insulin, 24 μg/mL adenine, 5 μg/mL transferrin, […] (T3), 10 ng/mL epidermal growth factor (EGF), 1% penicillin-streptomycin, and 5% fetal bovine serum (FBS). All cells are passaged at 70% confluency at a split ratio of 1:5.
(§2) Polyamides for HPV 18 are dissolved at 10 mM in 100% DMSO and diluted with H2O to 1 mM. Polyamides are added to cells in E media at final concentrations of 0.1-10 μM, with final DMSO concentrations of 0.1%. As controls, cells are incubated with normal E media and E media containing the “vehicle” 0.1% DMSO. The HPV DNA levels are then quantified according to previously published procedures (Garner-Hamrick and Fisher, Virology, 301, 334-41, 2002). After incubation, cells are harvested from the plates by either trypsinization or direct lysis with proteinase K digestion buffer (PK buffer: 100 mM NaCl, 10 mM Tris pH 8, 25 mM EDTA, 0.5% SDS, 0.1 mg/mL proteinase K). Trypsinized cells are counted on a hemocytometer and pelleted by centrifugation. Episomal HPV is isolated by the Hirt method (Hirt, 1967) and cell pellets are lysed in 0.6% SDS with 10 mM EDTA. NaCl is next added to a final concentration of 1 M. Following an overnight incubation at 4° C., precipitates containing the chromosomal DNA are spun down and episomal DNA precipitated by the addition of isopropanol. Cells lysed directly in PK buffer are transferred to microfuge tubes and incubated at 50° C. for 2 h. Lysates are then extracted with phenol/chloroform/isoamyl alcohol and spun through a phase lock gel (Eppendorf, Hamburg, Germany). Total DNA is then precipitated with 0.3 M NaOAc and 2.5 vol. ethanol and resuspended in Tris-EDTA (TE) buffer.
HPV31 primers-probe sets for PCR were also designed within the L1 gene:
(§3) All primers and probes are synthesized and HPLC purified by Applied Biosystems (Foster City, Calif.). The HPV probes are labeled with the 5′ reporter dye FAM (6-carboxy-fluorescein) and the 3′ quencher dye TAMRA (6-carboxytetramethyl-rhodamine). A standard curve is generated using a range of 10^8 to 10 copies/reaction of cloned, genomic HPV31 or HPV18 DNA using the following formula: (1.82×10^15)(μg/μL stock DNA)/(length in base pairs)(2)=copies/μL stock DNA. PCR reactions contain final concentrations of 1× Universal Master Mix (PE Applied Biosystems), 200 nM of each primer, and 250 nM probe (PE Applied Biosystems) in a reaction volume of 25 μL. Each Hirt-isolated DNA sample is analyzed in triplicate reactions for episomal HPV. Copies/reaction are determined from the standard curve, and copies/cell determined according to the following formula: (copies/reaction)×(DNA dilution)/(total # cells)=copies/cell.

The test system of another test is HPV 16. As to the kind of experiment: HPV 16 episome DNA levels in W12E cells by Q-PCR (Taqman). Particulars: for IC50: effective (pseudo) IC50, 50% reduction in HPV DNA relative to vehicle (0.1% DMSO), read-out: HPV-16 IC50. The protocol: Cells maintaining HPV 16 DNA were cultured for 72 hours in the presence of cidofovir, interferon γ or polyamide. Viral DNA was then quantified using real-time PCR and compared to vehicle (DMSO)-treated control cultures.
Compounds were initially tested for effects on HPV 16 episome DNA levels in W12E cells by Q-PCR (Taqman™) over 3 concentration ranges (0.1, 1 and 10 μM). W12E cells are a cervical keratinocyte cell line originally identified by M. Stanley (Cambridge University), and later optimized and provided by P. Lambert (U. of Wisconsin). […] In all cases (initial tests and follow-up IC50 tests), dose testing was performed in triplicate. […] Furthermore, all experiments were conducted in triplicate, multiple times. The data were then combined, pseudo or effective IC50 values calculated, and variance determined to reveal the fit of the data to the model and its reliability.
Keratinocytes that maintain HPV 16 episomes were treated with increasing concentrations of polyamides.

Another test has as its system HPV18. As to the kind of experiment: HPV18 DNA levels in keratinocytes by real-time PCR. The conditions noted are these: effective (pseudo) IC50. The protocol: as §1, §2
Viral DNA levels are next quantified according to variations on our previously published methods (Garner-Hamrick and Fisher, Virology, 301, 334-41, 2002). Quantitative PCR is performed using Real-Time PCR technology on an ABI PRISM 7700 Sequence Detector. All primers and probes were designed using Primer Express 1.0 (ABI). For HPV 18, PCR primer-probe sets were designed within the L1 gene:
as §3
For orientation: Real-time PCR tracks product formation cycle by cycle.

Turning to `CN(C)CCCNC(=O)CCNC(=O)c1cc(NC(=O)CCNC(=O)c2cc(NC(=O)c3cc(NC(=O)c4cc(NC(=O)CCNC(=O)c5cc(NC(=O)c6cc(NC(=O)CCCNC(=O)CCNC(=O)c7cc(NC(=O)c8cc(NC(=O)CCNC(=O)c9cc(NC(=O)c%10cc(NC(=O)c%11cc(NC(=O)c%12nccn%12C)cn%11C)cn%10C)cn9C)cn8C)cn7C)cn6C)cn5C)cn4C)cn3C)cn2C)cn1C` [Polyamide 1022, ImPPPβPPβγPPβPPPβPβDp], the IC50 in the test with HPV31 is at least 1000 nM; in the test with HPV 16, above 1000 nM.
Take `CN(C)CCCNC(=O)CCNC(=O)c1cc(NC(=O)c2cc(NC(=O)c3cc(NC(=O)c4cc(NC(=O)CCNC(=O)c5cc(NC(=O)c6cc(NC(=O)CCCNC(=O)c7cc(NC(=O)c8cc(NC(=O)c9cc(NC(=O)CCNC(=O)c%10cc(NC(=O)c%11cc(NC(=O)c%12nccn%12C)cn%11C)cn%10C)cn9C)cn8C)cn7C)cn6C)cn5C)cn4C)cn3C)cn2C)cn1C` [Polyamide 1023, ImPPβPPPγPPβPPPPβDp]: the IC50 is at least 1000 nM in the test with HPV31 and above 1000 nM with HPV 16.
Consider `CN(CCCN)CCCNC(=O)CCNC(=O)c1cc(NC(=O)CCNC(=O)c2cc(NC(=O)c3cc(NC(=O)c4cc(NC(=O)CCNC(=O)c5cc(NC(=O)c6cc(NC(=O)CCCNC(=O)CCNC(=O)c7cc(NC(=O)c8cc(NC(=O)CCNC(=O)c9cc(NC(=O)c%10cc(NC(=O)c%11cc(NC(=O)c%12nccn%12C)cn%11C)cn%10C)cn9C)cn8C)cn7C)cn6C)cn5C)cn4C)cn3C)cn2C)cn1C` [Polyamide 1027, ImPPPβPPβγPPβPPPβPβTa], for which the IC50 in the test on HPV31, in the test on HPV 16 and in the test on HPV18 was 100 to 1000 nM each time.
In the case of `CN(C)CCCNC(=O)CCNC(=O)c1cc(NC(=O)CCNC(=O)c2cc(NC(=O)c3cc(NC(=O)c4cc(NC(=O)CCNC(=O)c5cc(NC(=O)c6cc(NC(=O)[C@H](N)CCNC(=O)CCNC(=O)c7cc(NC(=O)c8cc(NC(=O)CCNC(=O)c9cc(NC(=O)c%10cc(NC(=O)c%11cc(NC(=O)c%12nccn%12C)cn%11C)cn%10C)cn9C)cn8C)cn7C)cn6C)cn5C)cn4C)cn3C)cn2C)cn1C` [Polyamide 1029, ImPPPβPPβγNH2PPβPPPβPβDp], the IC50 in the test on HPV31 is 100 to 1000 nM; in the test on HPV 16, 100 to 1000 nM; with HPV18 it was at least 1000 nM.
As for `CN(CCCN)CCCNC(=O)CCNC(=O)c1cc(NC(=O)c2cc(NC(=O)c3cc(NC(=O)c4cc(NC(=O)CCNC(=O)c5cc(NC(=O)c6cc(NC(=O)[C@H](N)CCNC(=O)c7cc(NC(=O)c8cc(NC(=O)c9cc(NC(=O)CCNC(=O)c%10cc(NC(=O)c%11cc(NC(=O)c%12nccn%12C)cn%11C)cn%10C)cn9C)cn8C)cn7C)cn6C)cn5C)cn4C)cn3C)cn2C)cn1C` [Polyamide 1030, ImPPβPPPγNH2PPβPPPPβTa], the IC50 with HPV31, in the test with HPV 16 and in the test with HPV18 was 100 to 1000 nM throughout.
For `CN(CCCN)CCCNC(=O)CCNC(=O)CCNC(=O)c1cc(NC(=O)c2cc(NC(=O)c3cc(NC(=O)CCNC(=O)c4cc(NC(=O)c5cc(NC(=O)c6cc(NC(=O)CCCNC(=O)c7cc(NC(=O)c8cc(NC(=O)c9cc(NC(=O)CCNC(=O)c%10cc(NC(=O)c%11cc(NC(=O)c%12cc(NC(=O)c%13nccn%13C)cn%12C)cn%11C)cn%10C)cn9C)cn8C)cn7C)cn6C)cn5C)cn4C)cn3C)cn2C)cn1C` [Polyamide 1031, ImPPPβPPPγPPPβPPPββTa], the IC50 with HPV31, with HPV 16 and in the test with HPV18 was 100 to 1000 nM throughout. The “effect on absolute HPV 16 DNA levels” value in the test with HPV 16 (higher doses, in some experiments, FIG. 3) was “nearly complete elimination of detectable viral DNA”.
On to `CN(CCCN)CCCNC(=O)CCNC(=O)c1cc(NC(=O)CCNC(=O)c2cc(NC(=O)c3cc(NC(=O)c4cc(NC(=O)CCNC(=O)c5cc(NC(=O)c6cc(NC(=O)[C@H](N)CCNC(=O)CCNC(=O)c7cc(NC(=O)c8cc(NC(=O)CCNC(=O)c9cc(NC(=O)c%10cc(NC(=O)c%11cc(NC(=O)c%12nccn%12C)cn%11C)cn%10C)cn9C)cn8C)cn7C)cn6C)cn5C)cn4C)cn3C)cn2C)cn1C` [Polyamide 1032, ImPPPβPPβγNH2PPβPPPβPβTa], for which the IC50 in the test on HPV31 and with HPV 16 was 100 to 1000 nM in each case.
On to `CN(CCCN)CCCNC(=O)CCNC(=O)CCNC(=O)c1cc(NC(=O)c2cc(NC(=O)c3cc(NC(=O)CCNC(=O)c4cc(NC(=O)c5cc(NC(=O)c6cc(NC(=O)C(N)CCNC(=O)c7cc(NC(=O)c8cc(NC(=O)c9cc(NC(=O)CCNC(=O)c%10cc(NC(=O)c%11cc(NC(=O)c%12cc(NC(=O)c%13nccn%13C)cn%12C)cn%11C)cn%10C)cn9C)cn8C)cn7C)cn6C)cn5C)cn4C)cn3C)cn2C)cn1C` (stereo not drawn) [Polyamide 1033, ImPPPβPPPγNH2PPPβPPPββTa], for which the IC50 with HPV31 is at least 1000 nM; with HPV 16, above 1000 nM.
As to `CN(C)CCCNC(=O)CCNC(=O)c1cc(NC(=O)c2cc(NC(=O)c3cc(NC(=O)CCNC(=O)c4cc(NC(=O)c5cc(NC(=O)c6cc(NC(=O)CCNC(=O)c7cc(NC(=O)c8cc(NC(=O)CCCNC(=O)c9cc(NC(=O)c%10cc(NC(=O)CCNC(=O)c%11nc(NC(=O)c%12cc(NC(=O)c%13cc(NC(=O)CCNC(=O)c%14cc(NC(=O)c%15cc(NC(=O)c%16nccn%16C)cn%15C)cn%14C)cn%13C)cn%12C)cn%11C)cn%10C)cn9C)cn8C)cn7C)cn6C)cn5C)cn4C)cn3C)cn2C)cn1C` [Polyamide 1040, ImPPβPPIβPPγPPβPPPβPPPβDp], the IC50 in the test on HPV31, with HPV 16 and in the test with HPV18 was 100 to 1000 nM throughout.
With `CN(CCCN)CCCNC(=O)CCNC(=O)c1cc(NC(=O)c2cc(NC(=O)c3cc(NC(=O)CCNC(=O)c4cc(NC(=O)c5cc(NC(=O)c6cc(NC(=O)CCNC(=O)c7cc(NC(=O)c8cc(NC(=O)CCCNC(=O)c9cc(NC(=O)c%10cc(NC(=O)CCNC(=O)c%11nc(NC(=O)c%12cc(NC(=O)c%13cc(NC(=O)CCNC(=O)c%14cc(NC(=O)c%15cc(NC(=O)c%16nccn%16C)cn%15C)cn%14C)cn%13C)cn%12C)cn%11C)cn%10C)cn9C)cn8C)cn7C)cn6C)cn5C)cn4C)cn3C)cn2C)cn1C` [Polyamide 1042, ImPPβPPIβPPγPPβPPPβPPPβTa], the IC50 in the test with HPV31 was at most 100 nM.
For `CN(CCCN)CCCNC(=O)CCNC(=O)c1cc(NC(=O)c2cc(NC(=O)c3cc(NC(=O)CCNC(=O)c4cc(NC(=O)c5cc(NC(=O)c6cc(NC(=O)CCNC(=O)c7cc(NC(=O)CCNC(=O)CCCNC(=O)c8nc(NC(=O)c9cc(NC(=O)c%10cc(NC(=O)CCNC(=O)c%11cc(NC(=O)c%12nc(NC(=O)c%13cc(NC(=O)CCNC(=O)c%14cc(NC(=O)c%15cc(NC(=O)c%16nccn%16C)cn%15C)cn%14C)cn%13C)cn%12C)cn%11C)cn%10C)cn9C)cn8C)cn7C)cn6C)cn5C)cn4C)cn3C)cn2C)cn1C` [Polyamide 1045, ImPPβPIPβPPIγβPβPPPβPPPβTa], the IC50 was at least 1000 nM with HPV31, above 1000 nM with HPV 16 and 100 to 1000 nM in the test on HPV18.
“ImPPPβPPPγNH2PPPβPPPββDp [Polyamide 1026]”: the IC50 in the test on HPV31 and with HPV 16 was 100 to 1000 nM in each case.

Source of the values: US9290551B2, “Compounds for treating papilloma virus infection” (NanoVir, LLC, priority 2012, dated 2016).
